pEC50, pIC50: −log10 of the molar value. Several values for one entry are separate records, joined by “and”; a condition that tells them apart may be missing. Equal entries are not always repeated. Activity calls are given as the source filed them.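 How the source made its calls: active means compounds giving half or more protection of infected cells from virus-caused growth loss, again on retest; inactive means the rest.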 Where a SMILES comes first, the peptide text is derived from it. The star is where a group is joined. Cbz = O=C(OCc1ccccc1)*
Tested on: CEM cells HIV-1 protection, formazan growth assay
Assay: NCI AIDS Antiviral Assay
Settings: for pIC50: measured here: growth of uninfected CEM cells
Procedure, shortened: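 Screen of anti-HIV-1 activity in human CEM cells using a formazan-based growth measurement at five drug concentrations. Hits with 50% or greater protection were repeated, and confirmation required reproducible complete protection.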

Row | SMILES | pEC50 | pIC50 | outcome
1 | O=[N+]([O-])c1ccc[c]([Sb](=[O])([OH])[OH])c1 | < 3.40 | < 3.70 | –
2 | COc1ccc(/C=C/C(=O)c2cc(OC)cc(OC)c2)cc1 | < 3.70 | 6.02 | –
3 | CC(=O)NC(N)=NC#N | < 2.70 | < 2.70 | –
4 | Cc1cc(C)c(S(=O)(=O)ONC(=O)OC(C)(C)C)c(C)c1 | – | – | inactive
5 | COc1ccc(-c2nc(SC)n(C3OC(COC(C)=O)C(OC(C)=O)C(OC(C)=O)C3OC(C)=O)c(=O)c2C#N)cc1 (stereo not given) | < 3.70 | 4.38 and 4.33 | –
6 | NC(=S)N/N=C1\CCCC\C1=C/c1ccccc1 | < 3.86 | 3.95 | –
7 | C/C(=N/N)c1ccc2[nH]c3c(C)cc([N+](=O)[O-])c(C)c3c2c1 | < 4.61 | 5.31 | –
8 | O=S(O)CCCCCSSc1ccc(Cl)cc1 | – | – | inactive
9 | CN1CCN(CCSSCCN2CCN(C)CC2)CC1 | < 3.70 | < 3.70 | –
10 | O=C(Nc1cccc(C(F)(F)F)c1)C(=O)C(C(=O)c1ccc(Cl)c(Cl)c1)C1OC(=O)c2ccccc21 (stereo not given) | < 3.80 | 4.86 | –
11 | COc1cc(/C=C/C2=C(C#N)C(=O)OC2(C)C)ccc1O | < 3.90 | < 3.90 | –
12 | C[N+](C)(C)CC1CCC/C1=N\OC(=O)c1ccccc1 (stereo not given) | < 3.21 | < 3.21 | –
13 | COC(=O)c1c(-c2ccccc2)c(C(O)c2ccccc2)n2ccccc12 (stereo not given) | < 4.58 | 4.85 | –
14 | Cc1cc(-c2ccccc2)c2ccc3c(-c4ccccc4)cc(C)nc3c2n1.Cc1cc(-c2ccccc2)c2ccc3c(-c4ccccc4)cc(C)nc3c2n1.O=C1OC(C(O)C[O-])C(O)=C1O.[Cu+] | < 4.60 | 6.15 | –
15 | O=c1cc(NNc2cccc(F)c2)[nH]c(=O)[nH]1 | < 3.70 | 5.96 | –
16 | Cc1ccc(NC(=O)CSc2nc(C)nc3c2sc(=S)n3-c2ccccc2)cc1 | < 3.70 | 3.86 | –
17 | CCn1c(=O)c2c(=O)[nH][nH]c2c2ccccc21 | < 3.70 | < 3.70 | –
18 | COc1ccc(/C(=N/Nc2ccccc2)C(c2ccc(OC)cc2)C2OC(=O)c3ccccc32)cc1 (stereo not given) | < 4.55 | < 4.55 | –
19 | O=C(O)CCCC(=O)CCCC(=O)O | – | – | inactive
20 | O=c1[nH]c2ncccc2c(=O)n1O | < 3.70 | 4.46 | –
21 | CC1OC(=O)C(O)=C1O (stereo not given) | – | – | inactive

Row | SMILES | pEC50 | pIC50 | outcome
22 | N#Cc1cc([N+](=O)[O-])ccc1NC(=O)/C(=N\NC(=O)c1ccncc1)C(c1cnc2ccc([N+](=O)[O-])cc2n1)[N+](=O)[O-] (stereo not given) | < 4.34 | 5.06 | –
23 | O=[N+]([O-])c1cc(S(=O)(=O)c2ccc(O)c([N+](=O)[O-])c2)ccc1O | < 3.70 | < 4.00 | –
24 | O=C1NC(c2cccc(Cl)c2)N2C(=O)NC(c3cccc(Cl)c3)N12 (stereo not given) | – | – | inactive
25 | COc1cc(C(C)c2cc3c(cc2OCCO)OCO3)cc(OC)c1OC (stereo not given) | < 3.46 | 6.35 | –
26 | CC(C)C1CC=NN1C(=O)OC(C)(C)C (stereo not given) | < 3.70 | < 3.70 | –
27 | Cc1cc(C)nc(NS(=O)(=O)c2ccc(Nc3c4ccccc4nc4c(C(=O)NNCCO)cccc34)cc2)n1 | < 3.70 | 4.48 | –
28 | CC1CN(c2cc3c(cc2F)c(=O)c(C(=O)O)cn3-c2ccc(F)cn2)CC(C)N1 (stereo not given) | < 3.70 | < 3.70 | –
29 | N#Cc1cccc(N(C(=O)c2ccccc2)c2ccccc2)n1 | < 3.70 | 3.95 | –
30 | CC12C3CC4C5CC(C(C53)[C@@H]1NCc1ccccc1)C42 (stereo not given in full) | < 3.36 | 4.11 | –
31 | CC(C)CC(=O)NC(C(=O)NC(C(=O)NC(CC(C)C)C(O)CC(=O)NC(C)C(=O)NC(CC(C)C)C(O)CC(=O)O)C(C)C)C(C)C (stereo not given) | < 4.44 | < 4.44 | –
32 | COc1c(C(C)C)cc2c3c1OC(=O)[C@@]31CCCC(C)(C)C1CC2 (stereo not given in full) | < 3.70 | 4.51 | –
33 | CC1=Nc2cc(C(=O)c3ccccc3)ccc2N=C(c2c(O)c3c(ccc4ccccc43)oc2=O)C1 | < 4.70 | < 4.70 | –
34 | CCN(CC)C(=S)N=Nc1c(O)[nH]c2ccccc12 | < 3.70 | 5.96 | –
35 | CC(=O)NCc1nc(C#N)c(N)o1 | < 3.70 | < 3.70 | –
36 | CN(C)C=Nc1nncc2n[nH]nc12 | < 3.70 | < 3.70 | –
37 | CC(=O)c1sc2c(c1OC(=O)c1cccs1)c(=O)n(-c1ccccc1)c(=S)n2-c1ccccc1 | < 3.70 | 5.42 | –
38 | CCCCc1cc(=O)oc2c3c(c4c(c12)OC(C)(C)CC4)O[C@@H](C)[C@H](C)[C@@H]3O | 5.57 | 4.98 | –
39 | N#C/C(=C/NC(=S)Nc1ccc(Cl)c(Cl)c1)C(N)=O | < 3.70 | 4.42 | –
40 | COC(=O)C(=O)c1cc2ccccc2n1S(=O)(=O)c1ccccc1 | < 3.70 | < 3.70 | –
41 | O=c1ccnc(SSc2nccc(=O)[nH]2)[nH]1 | < 3.70 | < 3.70 | –
42 | CC1(C)CC(=O)C(/C=N/C(=S)NCc2ccccc2)=C(O)C1 | < 3.70 | < 3.70 | –

Row | SMILES | pEC50 | pIC50 | outcome
43 | O=C(CCN1CCCCC1CCO)Nc1ccc2c(c1)C(=O)c1ccc(NC(=O)CCN3CCCCC3CCO)cc1C2=O (stereo not given) | < 3.70 | 5.58 | –
44 | CCC=C(c1cc(Cl)c(OC)c(C(=O)OC)c1)c1cc(Cl)c(OC)c(C(=O)OC)c1 | < 5.08 | < 5.08 | –
45 | CC(C)(C)CC(C)(C)c1ccc(O)c(SSc2cc(C(C)(C)CC(C)(C)C)ccc2O)c1 | < 3.70 | 4.59 | –
46 | OCC1C(O)[C@@H]2OC3(CCCC3)O[C@@H]2CN1OC/C=C/c1ccccc1 (stereo not given in full) | < 3.70 | 3.84 | –
47 | c1ccc2[nH]c(C3CCCCO3)nc2c1 (stereo not given) | < 3.70 | < 3.70 | –
48 | CC1Cn2c(c(-c3ccccc3)c(=O)[nH]c2=O)O1 (stereo not given) | < 3.44 | < 3.44 | –
49 | S=c1nc(COc2ccc(Cl)cc2Cl)[nH][nH]1 | < 4.17 | 4.29 | –
50 | CCOC(=O)CCC(NC(=O)C(CC(=O)OC)NC(=O)OCc1ccccc1)C(=O)NC(CC(=O)OC)C(=O)NC(CCC(=O)OCC)C(=O)NC(CC(=O)OC)C(=O)NC(CCC(=O)OCC)C(=O)NC(CC(=O)OC)C(=O)NC(CCC(=O)OCC)C(=O)NC(CC(=O)OC)C(=O)NC(CCC(=O)OCC)C(=O)NC(CC(=O)OCC)C(=O)OCC (stereo not given) (Cbz-D(OMe)E(OEt)D(OMe)E(OEt)D(OMe)E(OEt)D(OMe)E(OEt)D(OMe)E(OEt)D(OEt)-OEt; configuration not given here) | < 4.30 | < 4.30 | –
51 | O=C(/C=C\c1ccc(/C=C/C(=O)Nc2cccc(C3=NCCCN3)c2)cc1)Nc1cccc(C2=NCCCN2)c1 | < 4.35 | 5.09 | –
52 | O=C(O)CP(=S)(S)c1ccccc1 (stereo not given) | < 2.25 | < 2.25 | –
53 | c1ccc(-c2nc3c(N4CCOCC4)ncnc3o2)cc1 | < 4.59 | < 4.59 | –
54 | O=[N+]([O-])C1CC/C(=N/O)c2nonc21 (stereo not given) | < 3.70 | 3.91 | –
55 | CC[C@@H](C(=O)[C@@H](C)[C@@H](O)[C@H](C)CCc1ccc(C)c(O)c1C(=O)O)[C@H]1O[C@](CC)([C@H]2CC[C@](O)(CC)[C@H](C)O2)C[C@@H]1C | 5.82 | 5.74 | –
56 | O=C1C(=C2CCCC2)CC/C1=C1/SS/C(=C2/CCC(=C3CCCC3)C2=O)S1 | < 3.70 | 3.92 | –
57 | N#Cc1cc(C#N)c(N)nc1N | < 3.70 | < 3.70 | –
58 | Cc1cn(C2CC(Br)=NO2)c(=O)[nH]c1=O (stereo not given) | < 3.70 | 4.46 | –
59 | O=C1CC(c2ccc(O)c(O)c2)c2cc(O)c3c(c2O1)C[C@@H](O)[C@@H](c1ccc(O)c(O)c1)O3 (stereo not given in full) | < 3.70 | 4.80 | –
60 | NC(CSS(=O)(=O)O)=NCCCCc1ccccc1 | < 3.70 | 3.97 | –
61 | O=C(Nc1cc2c(oc1=O)CCCCC2)c1cnccn1 | < 4.00 | < 4.00 | –
62 | CC1CC(O)c2ccccc2O1 (stereo not given) | < 3.70 | < 3.70 | –
63 | O=C(Nc1ccc(Cl)cc1)Nc1ccc(Cl)c(C(F)(F)F)c1 | < 3.70 | 5.57 | –

Row | SMILES | pEC50 | pIC50 | outcome
64 | COC(=O)Cc1c([C@H]2[C@H](CC(=O)OC)c3ccccc3N2C(=O)C(F)(F)F)[nH]c2ccccc12 | < 3.70 | 4.56 | –
65 | O=C1/C(=C/c2ccco2)NC(=S)N1CN1CCCCC1 | < 3.70 | 4.49 | –
66 | COC1/C=C\OC2(C)Oc3c(C)c(O)c4c(c3C2=O)C(=O)C=C(NC(=O)C(C)=C/C=C\C(C)C(O)C(C)C2OC(C)(C)OC(C1C)C2C)C4=O (stereo not given) | < 4.71 | 5.62 | –
67 | CCOC(=O)/C(C#N)=C(O)/C(=C/c1ccccc1Cl)NC(=O)c1ccccc1 | < 3.20 | < 3.20 | –
68 | COc1ccc(/C=C/c2nc3ccccc3nc2/C=C/c2ccc(OC)c(OC)c2)cc1OC | < 4.00 | < 4.00 | –
69 | O=S(=O)(Cc1ccccc1)c1nnc(S(=O)(=O)c2ccc(Cl)cc2)s1 | < 3.70 | 5.26 | –
70 | [Ni+2].[O-]/C(=N\N=C/c1cccc(F)c1)c1ccncc1.[O-]/C(=N\N=C\c1cccc(F)c1)c1ccncc1 | < 4.00 | 4.42 | –
71 | CC(C)CCC[C@@H](C)[C@H]1CC[C@H]2[C@@H]3CCC4C[C@@H](OP(=O)(O)OCCC=C(c5cc(Cl)c(O)c(C(=O)O)c5)c5cc(Cl)c(O)c(C(=O)O)c5)CC[C@]4(C)[C@H]3CC[C@]12C (stereo not given in full) | < 3.70 | 4.47 | –
72 | O=c1oc2ccccc2c(O)c1C(c1ccc(OCc2ccccc2)cc1)c1c(O)c2ccccc2oc1=O | < 3.70 | 4.52 | –
73 | COc1cccc(C2c3cc4c(cc3OC(NNc3ccccc3)C2C)OCO4)c1OC (stereo not given) | < 3.70 | 5.09 | –
74 | O=C(c1ccc(Cl)cc1)c1ccc(N=[N+]([O-])c2ccc(C(=O)c3ccc(Cl)cc3)cc2)cc1 | < 4.00 | < 4.00 | –
75 | CCn1c(=O)c(N=O)c(N)n(CCCO)c1=O | < 3.70 | < 3.70 | –
76 | C/C(=N/NC(=O)c1ccncc1)C(F)(F)F | – | – | inactive
77 | O=C(O)c1cc(CCc2cc(O)ccc2O)ccc1O | < 3.74 | 4.54 | –
78 | N#Cc1cc2ccccc2n(Cc2ccccc2)c1=O | < 3.70 | < 3.70 | –
79 | N#CC1=C(Cl)NC(Cl)=C(C#N)C1c1c(Cl)cccc1Cl | 4.74 | < 4.00 | –
80 | NC(N)=NCCCC(NCc1c2ccccc2nc2ccccc12)C(=O)O (stereo not given) | – | – | inactive
81 | O=C(/C=C/c1ccccc1)Oc1ccc(C(=O)/C=C/c2ccccc2)cc1 | < 3.82 | 5.17 | –

From PubChem BioAssay AID179 (DTP/NCI, 2004)
